From patent US20200062719A1, “Application of Imidazopyridine Derivatives in Regenerative Medicine” (University of Heidelberg, priority 2018, published 2020) come the findings set out here.

One test has as its target T1, KDM5A (Homo sapiens, UniProt P29375).
T1 construct: magnetic beads were used to immunoprecipitate the respective enzymes from 10^8 cells; endogenous in cells
Briefly: KDM5A inhibition, enzyme immunoprecipitated from cells. The test is classed as biochemical. The text has this: In mammalian cells, the KDM5 family consists of four members, namely, KDM5A (known as JARID1A), KDM5B (known as JARID1B or PLU1), KDM5C (JARID1C), and KDM5D (JARID1D or SMCY). […] Next, the inventors tested four KDM chemical inhibitors. […] The inventors detected the induction of OCT4, SOX2, and E-Cadherin expression in JIB-04-treated HFs (FIG. 18D).
(§1) Epiquik histone demethylase (H3K4 specific) activity/inhibition assay kit (Epigentek, Biocat, Germany) was used to measure the protective effect of O4I3 and zolpidem on the methylation of H3K4. Their inhibitory effects on LSD1, KDM5s, and KDM4 were determined using Epigenase jarid demethylase activity/inhibition assay kit, Epigenase JMJD2 demethylase activity/inhibition assay kit and EpiQuik histone demethylase LSD1 activity/inhibition assay kit (Epigentek, Biocat, Germany). The total nuclear extraction was used according to manufacturer's instructions. For measuring KDM5A, KDM5B, KDM5C, and KDM5D activity, magnetic beads were used to immunoprecipitate the respective enzymes from 10^8 cells according to the manufacturer's instructions (Cell Signaling Technologies).

In test [1] the test system is Oct4. Nature of the test: Luciferase reporter assay in NCCIT-Oct4 cells. The test is classed as cell-based, human. The settings on record: O4I3 1 nM, a 10,000-fold lower concentration; both reporter cell lines.
Another test deals with H3K4Me3. Briefly: Global H3K4Me3 level in fibroblasts (immunocytochemistry, immunoblotting). The format is cell-based, human. The text has this: The inventors investigated the transfection efficiency in HF1 and HF4 using the same episomal vector carrying cytomegalovirus (CMV)-driven GFP. The inventors could not observe a significant difference between two cell lines, as determined by FACS analysis. […] To study the epigenetic effects of O4I3 and its relevance to reprogramming, the inventors focused on two histone modifications at the promoter of OCT4, namely, H3K4Me3, known to be related to gene activation, and H3K27Me3, which indicates gene repression. […] The level of H3K27Me3 at the OCT4 promoter was minimally affected in our experiments (FIG. 17C). […] Immunoblotting confirmed a dose- and time-dependent increase of global H3K4Me3 expression in fibroblast, whereas H3K27Me3 remained mostly unaffected (FIG. 17E). In an in vitro methylation assay, O4I3 protected methylated H3K4 with an […] value of 20 nM (FIG. 17F). Trimethylation of H3K9 has been reported to block reprogramming by recruiting heterochromatin protein 1 to form heterochromatin at the core of pluripotency loci, which interferes with the hypermethylation of H3K4. […]
Fibroblasts were treated with O4I3 0.5 μM for 2 days in the presence/absence of reprogramming transcription factors. […] The signal intensity was analyzed using ImageJ software as single cell level randomly selected from at least three independent experiments.

Test [2] concerns Oct4. Nature of the test: Luciferase reporter assay in NCCIT-Oct4 cells. The test is classed as cell-based, human. How it is done:
The ability of the lead compound to induce Oct4 at translational level was tested in a luciferase reporter cell line in human embryonic carcinoma NCCIT cells driven by Oct4 response elements (NCCIT-Oct4). The compound lead to a nearly 10-fold induction of Oct4 at 10 nM compared to untreated cells (FIG. 1B). Consequently, the lead compound was named “Oct4 inducing compound 3” (O4I3).
Luciferase reporter assay was performed using Beatle Juice Kit (PJK, Germany) according to the manufacturer's instruction. NCCIT-Oct and NCCIT-Nanog reporter cells were plated into a 24-well plate (100,000 cells/well) for 24 h. Cells were treated with compounds as indicated and harvested with luciferase lysis buffer (25 mM Tris phosphate buffer pH=7.8, 4 mM EGTA, 1% Triton X-100, 10% glycerol and 2 mM fresh DTT, filtered through 0.45 μm sterile filter) at 37° C. for 15 min. The protein concentration was determined by Bradford assay (Sigma, Germany). 100 μL reaction mixture containing luciferin and ATP was added to 20 μL cell lysis in a white plate (Gibco, Germany), incubated for 5 min and measured by a luminometer plate-reader. The activity was determined as percent luminous intensity of treated cells over control cells from at least five-independent experiments.

The target of the next test is methylated H3K4. Nature of the test: In vitro H3K4 methylation assay (Epiquik histone demethylase H3K4 specific kit). The test is classed as biochemical. The settings on record: in vitro methylation assay; read-out: IC50, protection of methylated H3K4. Here is the method:
as §1

The next test addresses T2, LSD1 (Homo sapiens, UniProt O60341).
T2 construct: using the whole-cell nuclear extraction; endogenous in cells
Briefly: LSD1 demethylase inhibition, nuclear extraction. The test is classed as biochemical. Particulars: even at a concentration of 100 mM.
Text: HMT and HDM are two major classes of enzymes, contributing to the regulation of histone methylation. Lysine-specific demethylase 1 (LSD1) and histone lysine demethylase 5 (KDM5, also known as JARID1) majorly catalyze demethylation of H3K4. A few KDM5 chemical inhibitors have been reported to inhibit demethylation of H3K4, leading to an increase of global methylated H3K4 in various cell types. The inventors tested the inhibitory effect of O4I3 on LSD1 and KDM5. KDM4 (also known as JMJD2), the HDM of H3K9 and H3K36, was also included.
as §1

The subject of a further test is hiPSCs. Briefly: Maintenance of hiPSCs, FACS of Tra-1-81 and Oct4 over passages. The format is cell-based, human. Particulars: 50 nM O4I3, FACS. Here is the method:
Since O4I3 induced sustainable expression of Oct4 and Nanog, the inventors questioned if it supports iPSC self-renewal in single cell expansion. Therefore, the viability of iPSCs, after replating Accutase®-dissociated single iPSCs, was tested in the presence or absence of O4I3. Rocki (Y-27632) was used for the first 24 h to increase iPSCs survival. A nearly 300% higher viability in cells treated with O4I3 (1 nM) was observed. Using 50 nM of O4I3 even 400% increase was observed (FIG. 2A). FACS analysis confirmed homologous expression of iPSCs markers, Tra-1-81 and Oct4, for at least 30 passages (FIG. 2B).
iPSCs were seeded in a 6-well plate coated with Geltrex. Cells were harvested, fixed and permeabilized (if appropriately) as known in the art (Cheng et al, Mol Oncol. 2016 June; 10(6):806-24). Fixed cells were incubated with the primary antibody for 24 h at 4° C. and with the secondary antibody for 1 h at room temperature.

T1 sequence (P29375 whole entry): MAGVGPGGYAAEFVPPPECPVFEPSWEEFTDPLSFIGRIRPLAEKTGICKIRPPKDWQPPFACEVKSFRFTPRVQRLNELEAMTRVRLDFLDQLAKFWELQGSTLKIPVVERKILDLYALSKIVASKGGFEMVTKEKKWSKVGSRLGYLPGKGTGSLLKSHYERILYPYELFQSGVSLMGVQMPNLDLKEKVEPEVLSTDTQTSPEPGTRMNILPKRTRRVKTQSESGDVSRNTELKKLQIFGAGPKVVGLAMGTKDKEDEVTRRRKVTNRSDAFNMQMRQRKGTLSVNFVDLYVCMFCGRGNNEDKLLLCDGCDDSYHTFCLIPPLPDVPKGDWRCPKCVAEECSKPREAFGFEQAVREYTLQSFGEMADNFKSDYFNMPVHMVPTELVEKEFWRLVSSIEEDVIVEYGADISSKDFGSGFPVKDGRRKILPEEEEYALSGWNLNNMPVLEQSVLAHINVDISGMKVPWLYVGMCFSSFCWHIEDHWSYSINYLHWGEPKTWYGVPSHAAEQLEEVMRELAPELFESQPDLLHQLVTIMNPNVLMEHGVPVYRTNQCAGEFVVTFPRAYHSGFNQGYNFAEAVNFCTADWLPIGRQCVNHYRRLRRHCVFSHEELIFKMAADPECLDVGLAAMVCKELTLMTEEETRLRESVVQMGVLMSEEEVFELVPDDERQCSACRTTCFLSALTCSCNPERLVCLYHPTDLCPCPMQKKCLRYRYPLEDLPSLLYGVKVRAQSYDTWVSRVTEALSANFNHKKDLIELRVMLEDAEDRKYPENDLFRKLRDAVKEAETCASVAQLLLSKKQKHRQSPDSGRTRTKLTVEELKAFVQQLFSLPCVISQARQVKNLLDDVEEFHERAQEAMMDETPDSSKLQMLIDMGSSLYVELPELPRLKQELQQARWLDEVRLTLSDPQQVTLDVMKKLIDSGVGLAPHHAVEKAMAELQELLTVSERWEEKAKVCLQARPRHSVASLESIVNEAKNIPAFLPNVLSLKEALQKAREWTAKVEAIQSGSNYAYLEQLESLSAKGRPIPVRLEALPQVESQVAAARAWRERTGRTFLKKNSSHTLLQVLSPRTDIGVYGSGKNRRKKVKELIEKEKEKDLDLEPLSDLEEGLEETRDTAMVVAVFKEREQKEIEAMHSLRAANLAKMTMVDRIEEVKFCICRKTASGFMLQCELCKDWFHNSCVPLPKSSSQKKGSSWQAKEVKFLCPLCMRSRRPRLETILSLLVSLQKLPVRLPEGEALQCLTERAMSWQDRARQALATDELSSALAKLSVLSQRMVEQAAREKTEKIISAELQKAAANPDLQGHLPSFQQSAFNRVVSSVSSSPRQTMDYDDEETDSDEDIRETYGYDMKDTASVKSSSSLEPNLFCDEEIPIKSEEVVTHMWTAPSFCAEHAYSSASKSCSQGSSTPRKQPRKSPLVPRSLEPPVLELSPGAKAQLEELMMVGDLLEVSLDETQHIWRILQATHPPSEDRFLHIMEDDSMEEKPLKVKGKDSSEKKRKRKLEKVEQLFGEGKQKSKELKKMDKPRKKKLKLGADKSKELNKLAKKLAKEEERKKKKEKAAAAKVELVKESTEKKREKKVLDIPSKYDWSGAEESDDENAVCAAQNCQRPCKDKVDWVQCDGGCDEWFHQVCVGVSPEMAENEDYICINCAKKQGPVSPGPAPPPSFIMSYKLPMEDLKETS

Turning to `Cc1ccc(-c2cn3cc(C)ccc3n2)cc1` [O4I3, 6-methyl-2-(p-tolyl)imidazo[1,2-a]pyridine], the figures for the half-inhibitory concentration (IC50) against KDM5A and at methylated H3K4 were 0.19 nM and 20 nM, respectively. Further, the “induction versus zolpidem at 10 μM” value in the test with Oct4 [1] was “comparable induction”. Also, the “global level of H3K4Me3” value in the test with H3K4Me3 is “increase of H3K4Me3”. In addition, the “induction of Oct4 compared to untreated cells” value in the test with Oct4 [2] (10 nM, NCCIT-Oct4 cells, 48 h) was ~10 fold. Besides, the “time course of Oct4 activation” value in the test on Oct4 [2] (over 4 days) is “continuous and constant activation”. The “inhibitory effect on LSD1” value on LSD1 was “hardly detected the inhibitory effect”. For the same molecule, the “homologous expression of Tra-1-81 and Oct4, number of passages” value with hiPSCs was “at least 30 passages”.
